The record followed here is patent US20030180248A1, “Cosmetic composition containing the extract of mountain ginseng adventitious roots” (priority 2001, published 2003).

The series relates to transformed mouse fibroblast L929 cells. In words: Cytotoxicity, Neutral Red uptake. In kind it is cell-based. The note with it: 48 hours. An excerpt:
Extracts from tissue-cultured mountain ginseng adventitious roots, prepared in Examples 1 to 3, were examined for cytotoxicity, in comparison with a red ginseng extract and arbutin, which are conventionally used as skin-whitening materials.
After being recovered by trypsinization, the transformed mouse fibroblast L929 cells were suspended in DMEM supplemented with 2% BCS (bovine calf serum), and the suspension was aliquoted at a concentration of 2,500-3,000 cells/well into each well of 96 well tissue culture plates, followed by incubation at 37° C. for 48 hours in a 5% CO2 atmosphere. After substitution of the medium with a fresh, serum-free one, the cells were treated with the test materials shown in Table 2, below, and cultured for 48 hours. To each well, Neutral Red (50 μg/ml) was added, and reacted with cells for 3 hours. After completion of the accumulation of Neutral Red in live cells, the dye was fixed with the use of 1.0% formalin/1.0% CaCl2. Neutral Red was extracted from cells using 1.0% acetic acid/50% ethanol solution. The extracted Neutral Red was analyzed by ELISA to measure the cytotoxicity of the test materials according to concentrations.

`OC[C@H]1O[C@@H](Oc2ccc(O)cc2)[C@H](O)[C@@H](O)[C@@H]1O` [Arbutin] gave an NR50 (Neutral Red) of 0.29 w/w %. Further, the “Cytotoxicity (Neutral Red reading)” value reads like this: (concentration 0.001 w/w %) 98; (concentration 0.01 w/w %) 82; (concentration 0.1 w/w %) 63; (concentration 1 w/w %) 2.
